# Source: the supplement of paper PMC10627819
# Experiments:
# S. aureus DSM 20231 = test: Bliss interaction score (quartile over a dose matrix) (fitness difference); higher = more antagonism (negative = synergy)
# Method in brief: (§1)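 Quartiles summarise the Bliss score over technical, biological and donor/recipient replicates, where the score is observed minus expected fitness under a product model. Expected fitness uses single-drug values inferred from combination data. Fitness is OD595 at entry into stationary phase over the plate's robust no-drug mean, capped at 1.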
# S. aureus Newman [1] = test: as above
# Method in brief: as §1
# S. pneumoniae D39V = test: as above
# Method in brief: as §1
# B. subtilis 168 = test: as above
# Method in brief: as §1
# S. aureus Newman [2] = test: fitness (endpoint OD595 vs no drug) (fraction); higher = more growth; details: main component drawn
# Method in brief: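 Fitness was measured as bacterial growth in 384-well plates inoculated at OD595 0.01 (30 µl, or 55 µl for S. pneumoniae). Media were TSB, LB Lennox or CY, at 37 °C. OD595 was read every 30 min for 14 h and background-subtracted against the first reading. Fitness is OD595 at the transition into stationary phase divided by the robust mean of no-drug control wells, capped at 1.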
# 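Wherever Bliss interaction score (quartile over a dose matrix) is given: first quartile when negative (synergy) and third quartile when positive (antagonism).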
structure (smiles),measurement,setting,value
C/C(=C\C(=O)OCCCCCCCCC(=O)O)C[C@@H]1OC[C@H](C[C@@H]2O[C@H]2[C@@H](C)[C@H](C)O)[C@@H](O)[C@H]1O [Pseudomonic acid] + CC[C@H]1OC(=O)[C@H](C)C(=O)[C@H](C)[C@@H](O[C@@H]2O[C@H](C)C[C@H](N(C)C)[C@H]2O)[C@](C)(OC)C[C@@H](C)C(=O)[C@H](C)[C@H]2N(CCCCn3cnc(-c4cccnc4)c3)C(=O)O[C@]12C [Telithromycin],Bliss interaction score,S. aureus DSM 20231,0.0119
same,Bliss interaction score,S. aureus Newman [1],-0.028
same,Bliss interaction score,S. pneumoniae D39V,-0.0569
same,Bliss interaction score,B. subtilis 168,0.0359
CCC[C@@H]1C[C@@H](C(=O)N[C@@H]([C@H]2O[C@H](SC)[C@H](O)[C@@H](O)[C@H]2O)[C@H](C)Cl)N(C)C1 [Clindamycin] + CN[C@H](CC(C)C)C(=O)N[C@H]1C(=O)N[C@@H](CC(N)=O)C(=O)N[C@H]2C(=O)N[C@H]3C(=O)N[C@H](C(=O)N[C@H](C(=O)O)c4cc(O)cc(O)c4-c4cc3ccc4O)[C@H](O[C@H]3C[C@](C)(N)[C@@H](O)[C@H](C)O3)c3ccc(c(Cl)c3)Oc3cc2cc(c3O[C@@H]2O[C@H](CO)[C@@H](O)[C@H](O)[C@H]2O[C@H]2C[C@](C)(NCc3ccc(-c4ccc(Cl)cc4)cc3)[C@@H](O)[C@H](C)O2)Oc2ccc(cc2Cl)[C@H]1O [Oritavancin],Bliss interaction score,S. aureus DSM 20231,0.0257
same,Bliss interaction score,S. aureus Newman [1],0.0703
same,Bliss interaction score,S. pneumoniae D39V,0.0382
same,Bliss interaction score,B. subtilis 168,0.0359
CC(=O)O[C@H]1C[C@@]2(C)[C@@H](C[C@@H](O)[C@H]3[C@@]4(C)CC[C@@H](O)[C@@H](C)[C@@H]4CC[C@@]32C)/C1=C(\CCC=C(C)C)C(=O)O [Fusidic acid] + Clc1ccc(COC(Cn2ccnc2)c2ccc(Cl)cc2Cl)c(Cl)c1 [Miconazole],Bliss interaction score,S. aureus DSM 20231,0.0483
same,Bliss interaction score,S. aureus Newman [1],-0.0399
same,Bliss interaction score,S. pneumoniae D39V,-0.117
same,Bliss interaction score,B. subtilis 168,-0.0605
O=C(N[C@H](CO)[C@H](O)c1ccc([N+](=O)[O-])cc1)C(Cl)Cl [Chloramphenicol] + CC(=O)O[C@H]1C[C@@]2(C)[C@@H](C[C@@H](O)[C@H]3[C@@]4(C)CC[C@@H](O)[C@@H](C)[C@@H]4CC[C@@]32C)/C1=C(\CCC=C(C)C)C(=O)O [Fusidic acid],Bliss interaction score,S. aureus DSM 20231,0.0319
same,Bliss interaction score,S. aureus Newman [1],-0.0559
same,Bliss interaction score,S. pneumoniae D39V,-0.103
same,Bliss interaction score,B. subtilis 168,0.074
N[C@@H]1CONC1=O [CycloserineD] + CN[C@H](CC(C)C)C(=O)N[C@H]1C(=O)N[C@@H](CC(N)=O)C(=O)N[C@H]2C(=O)N[C@H]3C(=O)N[C@H](C(=O)N[C@H](C(=O)O)c4cc(O)cc(O)c4-c4cc3ccc4O)[C@H](O)c3ccc(c(Cl)c3)Oc3cc2cc(c3O[C@@H]2O[C@H](CO)[C@@H](O)[C@H](O)[C@H]2O[C@H]2C[C@](C)(N)[C@H](O)[C@H](C)O2)Oc2ccc(cc2Cl)[C@H]1O [Vancomycin],Bliss interaction score,S. aureus DSM 20231,0.0736
same,Bliss interaction score,S. aureus Newman [1],0.0656
same,Bliss interaction score,S. pneumoniae D39V,-0.069
same,Bliss interaction score,B. subtilis 168,-0.113
CC(=O)OC[C@H]1O[C@@H]([S-])[C@H](OC(C)=O)[C@@H](OC(C)=O)[C@@H]1OC(C)=O.CCP(CC)CC.[Au+] [Auranofin] + CN[C@H](CC(C)C)C(=O)N[C@H]1C(=O)N[C@@H](CC(N)=O)C(=O)N[C@H]2C(=O)N[C@H]3C(=O)N[C@H](C(=O)N[C@H](C(=O)O)c4cc(O)cc(O)c4-c4cc3ccc4O)[C@H](O[C@H]3C[C@](C)(N)[C@@H](O)[C@H](C)O3)c3ccc(c(Cl)c3)Oc3cc2cc(c3O[C@@H]2O[C@H](CO)[C@@H](O)[C@H](O)[C@H]2O[C@H]2C[C@](C)(NCc3ccc(-c4ccc(Cl)cc4)cc3)[C@@H](O)[C@H](C)O2)Oc2ccc(cc2Cl)[C@H]1O [Oritavancin],Bliss interaction score,S. aureus DSM 20231,0.0219
same,Bliss interaction score,S. aureus Newman [1],0.0771
same,Bliss interaction score,S. pneumoniae D39V,0.0463
same,Bliss interaction score,B. subtilis 168,0.0311
C[C@@H](O)[C@H]1C(=O)N2C(C(=O)O)=C(SCCNC=N)C[C@H]12 [Imipenem] + CC1(C)S[C@@H]2[C@H](NC(=O)Cc3ccccc3)C(=O)N2[C@H]1C(=O)O [PenicillinG],Bliss interaction score,S. aureus DSM 20231,-0.0614
same,Bliss interaction score,S. aureus Newman [1],-0.198
same,Bliss interaction score,S. pneumoniae D39V,-0.0999
same,Bliss interaction score,B. subtilis 168,0.0587
O=C(N[C@H](CO)[C@H](O)c1ccc([N+](=O)[O-])cc1)C(Cl)Cl [Chloramphenicol] + CC(C1CCC(C(O1)OC2C(CC(C(C2O)OC3C(C(C(CO3)(C)O)NC)O)N)N)N)NC [Gentamicin],Bliss interaction score,S. aureus DSM 20231; main component drawn,0.0877
same,Bliss interaction score,S. pneumoniae D39V; main component drawn,-0.162
same,Bliss interaction score,B. subtilis 168; main component drawn,0.13
same,fitness,"S. aureus Newman [2]; first compound 0.75 µg/mL, partner 0.375 µg/mL",0.778
same,fitness,"S. aureus Newman [2]; first compound 0.75 µg/mL, partner 0.5 µg/mL",0.868
same,fitness,"S. aureus Newman [2]; first compound 0.75 µg/mL, partner 0.75 µg/mL",0.778
same,fitness,"S. aureus Newman [2]; first compound 0.75 µg/mL, partner 1 µg/mL",0.974
same,fitness,"S. aureus Newman [2]; first compound 0.75 µg/mL, partner 1.5 µg/mL",0.765
same,fitness,"S. aureus Newman [2]; first compound 0.75 µg/mL, partner 2 µg/mL",≥ 1
same,fitness,"S. aureus Newman [2]; first compound 1.5 µg/mL, partner 0.375 µg/mL",0.507
same,fitness,"S. aureus Newman [2]; first compound 1.5 µg/mL, partner 0.5 µg/mL",0.775
same,fitness,"S. aureus Newman [2]; first compound 1.5 µg/mL, partner 0.75 µg/mL",0.543
same,fitness,"S. aureus Newman [2]; first compound 1.5 µg/mL, partner 1 µg/mL",0.893
same,fitness,"S. aureus Newman [2]; first compound 1.5 µg/mL, partner 1.5 µg/mL",0.561
same,fitness,"S. aureus Newman [2]; first compound 1.5 µg/mL, partner 2 µg/mL",0.871
same,fitness,"S. aureus Newman [2]; first compound 3 µg/mL, partner 0.375 µg/mL",0.208
same,fitness,"S. aureus Newman [2]; first compound 3 µg/mL, partner 0.5 µg/mL",0.436
same,fitness,"S. aureus Newman [2]; first compound 3 µg/mL, partner 0.75 µg/mL",0.223
same,fitness,"S. aureus Newman [2]; first compound 3 µg/mL, partner 1 µg/mL",0.487
same,fitness,"S. aureus Newman [2]; first compound 3 µg/mL, partner 1.5 µg/mL",0.231
same,fitness,"S. aureus Newman [2]; first compound 3 µg/mL, partner 2 µg/mL",0.512
